The record followed here is patent US11090304B2 (Amgen Inc., priority 2018, dated 2021).

For one test, the target named is GDP-bound KRAS protein (aa 1-169), containing both G12C and C118A amino acid substitutions (Homo sapiens, UniProt P01116, C118A/G12C). As to the kind of experiment: Coupled nucleotide exchange assay (SOS-mediated, AlphaScreen). Type of test: biochemical. The following applies: 5 min compound pre-incubation. Background: Bead proximity is the source of the signal in Alpha formats.
For the compound `C=CC(=O)N1CC=C(c2cc(=O)n(CC(C)(C)C)c3nc(-c4ccccc4F)c(Cl)cc23)CC1` [Example 124, 6-Chloro-1-(2,2-dimethylpropyl)-7-(2-fluorophenyl)-4-(1-(2-propenoyl)-1,2,3,6-tetrahydro-4-pyridinyl)-1,8-naphthyridin-2(1H)-one], the “Coupled exchange IC50 (5 min)” value is 6.22 | nda μM. The same measure, in the same setting: for `C=CC(=O)N1CCC(c2cc(=O)n(CC(C)(C)C)c3nc(-c4ccccc4F)c(Cl)cc23)CC1` [Example 125, 6-Chloro-1-(2,2-dimethylpropyl)-7-(2-fluorophenyl)-4-(1-(2-propenoyl)-4-piperidinyl)-1,8-naphthyridin-2(1H)-one] the value was 35.4 | nda μM; for `C=CC(=O)N1CCN(c2cc(=O)n(-c3ccccc3C(C)C)c3nc(-c4ccccc4F)ccc23)[C@@H](C)C1` [Example 127, 7-(2-fluorophenyl)-4-((2S)-2-methyl-4-(2-propenoyl)-1-piperazinyl)-1-(2-(2-propanyl)phenyl)-1,8-naphthyridin-2(1H)-one], 27.2 | nda μM. With `C=CC(=O)N1CCN(c2nc(OC)c(-c3ccccc3C)c3nc(-c4ccccc4F)c(Cl)cc23)[C@@H](C)C1` [Example 134, 1-((3S)-4-(3-Chloro-2-(2-fluorophenyl)-7-methoxy-8-(2-methylphenyl)-1,6-naphthyridin-5-yl)-3-methyl-1-piperazinyl)-2-propen-1-one], the “Coupled exchange IC50 (5 min)” value is given as 1.95 | nda μM. On to `C=CC(=O)N1CCN(c2nc(=O)n(-c3c(C)ccnc3C(C)C)c3nc(-c4ccccc4F)c(C)nc23)[C@@H](C)C1` [Example 143, 7-(2-Fluorophenyl)-6-methyl-1-(4-methyl-2-(2-propanyl)-3-pyridinyl)-4-((2S)-2-methyl-4-(2-propenoyl)-1-piperazinyl)-2(1H)-pteridinone], for which the “Coupled exchange IC50 (5 min)” value was 0.497 | nda μM. Still for that read-out and setting: to `C=CC(=O)N1CCN(c2nc(C)c(C(=O)N(C(C)C)C(C)C)c3nc(-c4ccccc4F)c(Cl)cc23)CC1` [Example 144, 3-Chloro-2-(2-fluorophenyl)-7-methyl-N,N-di(2-propanyl)-5-(4-(2-propenoyl)-1-piperazinyl)-1,6-naphthyridine-8-carboxamide] belongs 8.31 | nda μM; to `C=CC(=O)N1CCN(c2nc(C#N)c(-c3ccccc3C(C)C)c3nc(-c4ccccc4F)c(Cl)cc23)CC1` [Example 146, 3-Chloro-2-(2-fluorophenyl)-8-(2-(2-propanyl)phenyl)-5-(4-(2-propenoyl)-1-piperazinyl)-1,6-naphthyridine-7-carbonitrile], 38.7 | nda μM; to `C=CC(=O)N1CCN(c2nc(C(N)=O)c(-c3ccccc3C(C)C)c3nc(-c4ccccc4F)c(Cl)cc23)CC1` [Example 147, 3-Chloro-2-(2-fluorophenyl)-8-(2-(2-propanyl)phenyl)-5-(4-(2-propenoyl)-1-piperazinyl)-1,6-naphthyridine-7-carboxamide], 13.6 | nda μM. On to `C=CC(=O)N1CCN(c2nc(CO)c(C(=O)N3[C@@H](C)CC[C@@H]3C)c3nc(-c4ccccc4F)c(Cl)cc23)CC1` [Example 149, 1-(4-(3-Chloro-8-(((2S,5S)-2,5-dimethyl-1-pyrrolidinyl)carbonyl)-2-(2-fluorophenyl)-7-(hydroxymethyl)-1,6-naphthyridin-5-yl)-1-piperazinyl)-2-propen-1-one], for which the “Coupled exchange IC50 (5 min)” value was 20.6 | nda μM.

Still in this test, the particulars now being: 2 h compound pre-incubation.
As for `C=CC(=O)N1CCN(c2nc(=O)n(-c3ccccc3C(F)(F)F)c3cc(Br)c(Cl)cc23)CC1` [Example 128, 7-Bromo-6-chloro-4-(4-(2-propenoyl)-1-piperazinyl)-1-(2-(trifluoromethyl)phenyl)-2(1H)-quinazolinone], the “Coupled exchange IC50 (2 h)” value is reported as “nda | 18 μM”.

Staying with this test, now noted: read-out: Coupled exchange IC50 (5 min); 5 min compound pre-incubation.
Take “Mixture of (M)-6-chloro-7-((2R)-2-methyl-1-piperidinyl)-4-((2S)-2-methyl-4-(2-propenoyl)-1-piperazinyl)-1-(2-(2-propanyl)phenyl)pyrido[2,3-d]pyrimidin-2(1H)-one and (M)-6-chloro-7-((2S)-2-methyl-1-piperidinyl)-4-((2S)-2-methyl-4-(2-propenoyl)-1-piperazinyl)-1-(2-(2-propanyl)phenyl)pyrido[2,3-d]pyrimidin-2(1H)-one [Example 115]”: the IC50 (commonly the point on the concentration scale where inhibition reaches its midpoint) stood at 2920 nM.

For the next test, the system named is Phosphorylation of ERK1/2 in MIA PaCa-2 cells. Description: Phospho-ERK1/2 MSD assay in MIA PaCa-2 cells. The following applies: Homo sapiens, MIA PaCa-2, 2 h, read-out: p-ERK IC50 (2 h; MIA PaCa-2), 2 h compound treatment. It is filed as cell-based. Here is the method: For compounds in Table 89, the following assay conditions were employed:
Phospho-ERK1/2 MSD Assay:
Sixteen hours prior to compound treatment, MIA PaCa-2 or A549 cells were seeded in 96-well cell culture plates at a density of 25,000 cells/well and incubated at 37° C., 5% CO2. A compound dose-response titration was diluted in growth media, added to appropriate wells of a cell culture plate, and then incubated at 37° C., 5% CO2 for 2 or 4 hours (see Table 15). Following compound treatment, cells were stimulated with 10 ng/mL EGF (Roche 11376454001) for 10 min, washed with ice-cold Dulbecco's phosphate-buffered saline, no Ca^2+ or Mg^2+ (ThermoFisher Scientific 14190144), and then lysed in RIPA buffer (50 mM Tris-HCl pH 7.5, 1% Igepal, 0.5% sodium deoxycholate, 150 mM NaCl, and 0.5% sodium dodecyl sulfate) containing protease inhibitors (Roche 4693132001) and phosphatase inhibitors (Roche 4906837001). Phosphorylation of ERK1/2 in compound-treated lysates was assayed using Phospho-ERK1/2 Whole Cell Lysate kits (Meso Scale Discovery K151DWD) according to the manufacturer's protocol. Assay plates were read on a Meso Scale Discovery Sector Imager 6000, and data were analyzed using a 4-parameter logistic model to calculate IC50 values.
Take `C=CC(=O)N1CCN(c2nc(=O)n(-c3c(C(C)C)ccnc3C)c3nc(-c4c(O)cccc4F)c(Cl)cc23)[C@@H](C)C1` [Example 54-17, 6-chloro-7-(2-fluoro-6-hydroxy-phenyl)-1-(2-methyl-4-(2-propanyl)-3-pyridinyl)-4-((2S)-2-methyl-4-(2-propenoyl)-1-piperazinyl) pyrido[2,3-d]pyrimidin-2(1H)-one]: the IC50 is 504 nM.

With `C=CC(=O)N1CCN(c2nc(=O)n(-c3ccccc3C(C)C)c3nc(-c4ccccc4O)c(Cl)cc23)[C@@H](C)C1` [Example 54-43, 6-chloro-7-(2-hydroxyphenyl)-4-((2S)-2-methyl-4-(2-propenoyl)-1-piperazinyl)-1-(2-(2-propanyl)phenyl)pyrido [2,3-d]pyrimidin-2(1H)-one], the IC50 worked out at 251 nM. As to `C=CC(=O)N1CCN(c2nc(=O)n(-c3c(C)cnn3C(C)C)c3nc(-c4c(O)cccc4F)c(Cl)cc23)[C@@H](C)C1` [Example 54-70, 6-chloro-7-(2-fluoro-6-hydroxyphenyl)-1-(4-methyl-1-(2-propanyl)-1H-pyrazol-5-yl)-4-((2S)-2-methyl-4-(2-propenoyl)-1-piperazinyl) pyrido[2,3-d]pyrimidin-2(1H)-one], the IC50 was 88 nM.

Regarding `C=CC(=O)N1CCN(c2nc(=O)n(-c3c(C(C)C)ncnc3C(C)C)c3nc(-c4c(O)cccc4F)c(Cl)cc23)[C@@H](C)C1` [Example 55-2], the IC50 was found to be 25 nM. On the same count and under the same terms, to `C=CC(=O)N1CCN(c2nc(=O)n(-c3c(C)ncnc3C(C)C)c3nc(-c4c(O)cccc4F)c(Cl)cc23)[C@@H](C)C1` [Example 55-14, 6-chloro-7-(2-fluoro-6-hydroxyphenyl)-1-(4-methyl-6-(2-propanyl)-5-pyrimidinyl)-4-((2S)-2-methyl-4-(2-propenoyl)-1-piperazinyl)pyrido[2,3-d]pyrimidin-2(1H)-one] belongs 134 nM; to `C=CC(=O)N1CCN(c2nc(=O)n(-c3c(C)ncnc3C(C)C)c3nc(-c4c(O)cccc4F)c(F)cc23)[C@@H](C)C1` [Example 58-11, 6-fluoro-7-(2-fluoro-6-hydroxyphenyl)-1-(4-methyl-6-(2-propanyl)-5-pyrimidinyl)-4-((2S)-2-methyl-4-(2-propenoyl)-1-piperazinyl)pyrido[2,3-d]pyrimidin-2(1H)-one], 742 nM.

The same test, now with this note: read-out: p-ERK IC50 (2 h; MIA PaCa-2), 2 h compound treatment.
As to `C=CC(=O)N1CCN(c2nc(=O)n(-c3c(C(C)C)ccnc3C)c3nc(-c4c(O)cccc4F)c(Cl)cc23)[C@@H](C)C1` (single isomer, unassigned) [Example 54-17-1], the IC50 was 413 nM. `C=CC(=O)N1CCN(c2nc(=O)n(-c3c(C)cnn3C(C)C)c3nc(-c4c(O)cccc4F)c(Cl)cc23)[C@@H](C)C1` (single isomer, unassigned) [Example 54-71-2]: the 50% inhibitory concentration (IC50) came to 179 nM. Same read-out and setting: to `C=CC(=O)N1CCN(c2nc(=O)n(-c3c(C)cccc3CC)c3nc(-c4c(O)cccc4F)c(Cl)cc23)[C@@H](C)C1` (single isomer, unassigned) [Example 55-8-1] belongs 45 nM; to `C=CC(=O)N1CCN(c2nc(=O)n(-c3c(C)cccc3CC)c3nc(-c4c(O)cccc4F)c(Cl)cc23)[C@@H](C)C1` (single isomer, unassigned) [Example 55-8-2], 160 nM; to `C=CC(=O)N1CCN(c2nc(=O)n(-c3c(C)ncnc3C(C)C)c3nc(-c4c(O)cccc4F)c(Cl)cc23)[C@@H](C)C1` (single isomer, unassigned) [Example 55-14-1], 1090 nM. Still for that read-out and setting: for `C=CC(=O)N1CCN(c2nc(=O)n(-c3c(C)cccc3C(C)C)c3nc(-c4c(O)cccc4F)c(F)cc23)[C@@H](C)C1` (single isomer, unassigned) [Example 58-18-2] the value was 715 nM; for `C=CC(=O)N1CCN(c2nc(=O)n(-c3ccccc3C(C)C)c3nc(-c4c(O)cccc4F)c(Cl)cc23)CC1` (single isomer, unassigned) [Example 60-24-2, (P)-6-chloro-7-(2-fluoro-6-hydroxyphenyl)-1-(2-(2-propanyl)phenyl)-4-(4-(2-propenoyl)-1-piperazinyl)pyrido[2,3-d]pyrimidin-2(1H)-one], 704 nM.

`C=CC(=O)N1CCN(c2nc(=O)n(-c3ccccc3C(C)C)c3cc(-c4ccccc4F)c(Cl)cc23)CC1` (single isomer, unassigned) [Example 88-2, 6-chloro-7-(2 fluorophenyl)-1-(2-(2-propanyl)phenyl)-4-(4-(2-propenoyl)-1-piperazinyl)-2(1H)-quinazolinone]: the IC50 was determined as 1650 nM.

Still in this test, the particulars now being: read-out: p-ERK IC50 (4 h; MIA PaCa-2), 4 h compound treatment.
With `C=CC(=O)N1CCN(c2nc(=O)n(-c3ccccc3C(C)C)c3nc(-c4c(O)cccc4F)c(Cl)cc23)CC1` (single isomer, unassigned) [Example 60-24-2, (P)-6-chloro-7-(2-fluoro-6-hydroxyphenyl)-1-(2-(2-propanyl)phenyl)-4-(4-(2-propenoyl)-1-piperazinyl)pyrido[2,3-d]pyrimidin-2(1H)-one], the IC50 came to 976 nM.
